# Assay results reported in US20250049753A1, “METHODS AND COMPOSITIONS FOR DELIVERING MYCOPHENOLIC ACID ACTIVE AGENTS TO NON-HUMAN MAMMALS” (Okava Pharmaceuticals, Inc., priority 2017, published 2025).
# “And” between values parts separate entries of the source, which are not always exact repeats. Identical values can stand only once.
# Assay: Study 1: single-dose cross-over PK, oral vs intracolonic Na.MPA
# Assay type: in vivo, male beagle dogs
# Conditions: for dose-normalized AUClast MPA: fasted, average
# Description: Two single dose cross-over studies were conducted using a canine model (male beagle dogs) to evaluate the potential of an enteric coated-extended release sodium mycophenolate formulation (“EC-ER-Na.MP”). In a first cross-over study, the pharmacokinetics of MPA and its metabolites (MPAG and AcMPAG) following oral dosing of 180 mg of EC-Na.MPA was compared with intracolonic (IC) administration of Na.MPA. In a second cross-over study, 270 mg of an EC-ER-Na.MPA formulation was administered in the both fed and fasted states and pharmacokinetics were compared with oral administration of 10 mg/kg MMF in the fasted state. Both studies were conducted by Absorption Systems (San Diego, CA).
# Study 1: For three days prior to IC dosing, dogs (n=5) were offered a soft diet consisting of canned wet food (Pedigree® Choice Cuts). Otherwise, the dogs were offered their standard diet (LabDiet 5006 laboratory canine diet). Prior to each dosing event, the dogs were fasted for 12 hours prior to dosing until 4 hours post-dose, when food was returned. Animals had free access to water throughout the study. Prior to IC dosing, each dog was given a non-stimulant enema approximately 1 hour prior to dosing to remove feces from the colon. Prior to PO dosing, each dog (n=5) was pre-treated with an intramuscular dose of pentagastrin (6 μg/kg) approximately 30 minutes prior to dosing. Capsules were administered by placement in the back of the throat followed by a 10 mL flush with water.
# Each dog received a total dose of 180 mg of MPA for each dose. For IC dosing, MPA was delivered as a solution via an endoscope, and for PO dosing each dog received a single Myfortic® 180 mg enteric coated capsule. Following administration, blood samples were collected up to 24 hours post-dose. Plasma concentrations of MPA, MPAG, and AcMPAG were determined with a qualified LC-MS/MS method, and pharmacokinetic parameters were determined with WinNonlin v.6.4 software.
smiles,measurement,setting,value
"COc1c(C)c2c(c(O)c1C/C=C(\C)CCC(=O)O)C(=O)OC2 [MPA, Mycophenolic acid]",dose-normalized AUClast MPA,IC 180 mg/dog,1817 ± 925 kg·ng·h/mL/mg and 1817 kg·ng·h/mL/mg
same,dose-normalized AUClast MPA,PO 180 mg/dog,2234 ± 799 kg·ng·h/mL/mg and 2234 kg·ng·h/mL/mg
same,systemic exposure to MPA following IC and PO dosing,based on average values,similar
same,"rate of MPA absorption, IC in comparison to PO dose","dog, in vivo, po",more rapidly absorbed following IC dosing
